Experimental data reported in US6949575B2, “Method of inhibiting amyloid protein aggregation and imaging amyloid deposits using aminoindane derivatives” (Pfizer Inc., priority 2000, dated 2005).
Values joined by “and” are separate entries in the source; they are usually repeats but may differ in a detail not shown here. Identical values can stand only once.

Key:
Type in all cases: biochemical
[1] = molecular target: T1, Aβ (1-40) peptide (Homo sapiens, UniProt P05067); experiment: BAPA (Beta-Amyloid Peptide Aggregation, pH 6.0), filtration endpoint; conditions: Aβ(1-40) 33 μM, pH 6.0, 2 to 4 hours, room temperature
T1 construct: Aβ (1-40) peptide in 20% HFIP
T1 sequence (P05067 672-711 limits assumed): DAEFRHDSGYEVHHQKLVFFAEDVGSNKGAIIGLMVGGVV
Experimental: • 1) Prepare the reaction mix above by mixing the components and storing on ice. • 2) Pipet 14.5 μL of reaction mixture into each of 50 wells of a polystyrene U-bottom 96-well microtiter plate (Coming 25881-96) on ice. • 3) Add 1.7 μL of diluted compound to be tested to each well in a column of eight, including solvent control. Serial 3-fold dilutions from 1 mM (100 μM final) in assay buffer-urea=7 dilutions+zero. Each 96-well plate can therefore accommodate 11 samples+1 Congo Red control (0.039-5 μM final in 2-fold steps). • 4) Seal the plate with aluminum film and incubate for 10 minutes on ice. • 5) Raise the temperature to 37° C. and incubate for 3 to 5 hours (depends on the lot of the peptide). • 6) Remove the aluminum film and add 250 μL/well of 5 μM thioflavin T (ThT) [T-3516, Sigma-Aldrich] in 50 mM glycine-NaOH, pH 8.5. Read fluorescence on a plate reader (ex=440 nm/20 nm; em=485 nm/20 nm) within 5 minutes. BAPA (Beta-Amyloid Peptide Aggregation) This assay is used to provide a measure of inhibition by a compound against the aggregation behavior of the β-amyloid peptide. The purpose of this assay is to provide a higher volume method of assaying the amount of β-amyloid aggregation using an endpoint assay based on filtration. In this assay, hexafluoroisopropanol (HFIP) is used to break down the initial amyloid peptide to a monomer state and use a concentration of 33 μM which is high enough so that aggregation will occur at pH 6.0 in several hours. Methods: Beta-Amyloid Peptide Aggregation, pH 6.0 (BAPA) In a 96-well plate (Costar 3794), we add 25 μL 50 mM phosphate buffer, pH 6.0, 10 μL 0.5 mg/mL Aβ (1-40) peptide in 20% HFIP+0.1 μL/assay radioiodinated ^125I Aβ (1-40) [^125I Aβ(1-40)], and 1 μL of the compound to be tested starting at 50 mM with a concentration of DMSO<1%. Then, we incubate for 2 to 4 hours at room temperature. We stop the reaction with 200 μL of 50 mM phosphate buffer, pH 6.0, and filter it through a 0.2 μm 96-well filter plate (Millipore MAGU […]). We wash the filter plate with 100 μL of the same phosphate buffer. Aggregation was detected on a Microbeta counter after impregnating the filters with Meltilex (1450-441) and is corrected for background.

[2] = molecular target: T2, Soluble Aβ(1-40) (Homo sapiens, UniProt P05067); experiment: BASST (Beta-Amyloid Self-Seeding, Thioflavin T): inhibitors of self-seeded amyloid fibril growth; conditions: 30 μM soluble Aβ(1-40), 37° C., 3 to 5 hours, thioflavin T fluorescence
T2 construct: Soluble Aβ(1-40)—2.2 mg/mL in deionized H2O
T2 sequence (P05067 672-711 limits assumed): as above
Experimental: • 1) Prepare reaction mixture above by mixing components and storing on ice. • 2) Pipet 14.5 μL of reaction mixture into each of 50 wells on a polypropylene U-bottom 96-well microtiter plate on ice (Costar 3794). • 3) Add 1.7 μL of diluted compound to be tested to each well in a column of eight, including solvent control. Serial 3-fold dilutions from 1 mM (100 μM final) in assay buffer-urea=7 dilutions+zero. Each 96-well plate can therefore accommodate 11 samples+1 Congo Red control (0.039-5 μM final in 2-fold steps). • 4) Seal the plate with aluminum film (Beckman 538619) and incubate for 10 minutes on ice. • 5) Raise the temperature to 37° C. and incubate for 3 to 5 hours (depending on the lot of the peptide). • 6) Remove the aluminum film and add 200 μL/well of ice cold assay buffer with urea, collecting the radiolabeled fibrils by vacuum filtration through 0.2-μm pore size GVWP filters in 96-well plates (Millipore MAGV […], Bedford, Mass.). Determine the radioactivity of the filters using standard methods well-known to those skilled in the art. BASST (Beta-Amyloid Self-Seeding, Thioflavin T) An assay for inhibitors of self-seeded amyloid fibril growth Methods: Materials: Stock Solutions: Assay Buffer-50 mM sodium phosphate, pH 7.5, 100 mM NaCl, 0.02% NaN3, 1 M urea (filter and store at 4° C.) Soluble Aβ(1-40)-2.2 mg/mL in deionized H2O (store in aliquots at -20° C., keep on ice when thawed) will self-seed after 1 week storage. Typically, the solution should be stored until no lag phase is seen in the assay. Final assay conditions: 30 μM soluble Aβ(1-40) in deionized water in assay buffer. Compound to be tested is dissolved in DMSO, typically 5 to 50 mM stock, such that the final concentration of DMSO is <1% v/v in the assay. Assay: Reaction mixture for 50 assays (on ice) comprised of 1 μL of soluble Aβ(1-40)+13.5 μL assay buffer per assay. The following are the amounts of the components of the reaction mixture that result in each of the 50 assay wells. 50 μL soluble Aβ(1-40) 675 μL assay buffer Assay Method • 1) Prepare the reaction mix above by mixing the components and storing on ice. • 2) Pipet 14.5 μL of reaction mixture into each of 50 wells of a polystyrene U-bottom 96-well microtiter plate (Coming 25881-96) on ice. • 3) Add 1.7 μL of diluted compound to be tested to each well in a column of eight, including solvent control. Serial 3-fold dilutions from 1 mM (100 μM final) in assay buffer-urea=7 dilutions+zero. Each 96-well plate can therefore accommodate 11 samples+1 Congo Red control (0.039-5 μM final in 2-fold steps). • 4) Seal the plate with aluminum film and incubate for 10 minutes on ice. • 5) Raise the temperature to 37° C. and incubate for 3 to 5 hours (depends on the lot of the peptide). • 6) Remove the aluminum film and add 250 μL/well of 5 μM thioflavin T (ThT) [T-3516, Sigma-Aldrich] in 50 mM glycine-NaOH, pH 8.5. Read fluorescence on a plate reader (ex=440 nm/20 nm; em=485 nm/20 nm) within 5 minutes. BAPA (Beta-Amyloid Peptide Aggregation)

[3] = molecular target: T3, Aβ (1-42) (Homo sapiens, UniProt P05067); experiment: Batym Assay: Aβ (1-42) aggregation, Thioflavin T fluorescence; conditions: Aβ1-42 final 100 μM, 37° C., 1 day, read-out: BAYTM IC50
T3 construct: Required Aβ (1-42) (California Peptide); purchased California Peptide
T3 sequence (P05067 672-713 limits assumed): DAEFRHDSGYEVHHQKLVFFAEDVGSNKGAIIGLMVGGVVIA
Experimental: Required Aβ (1-42) (California Peptide) was dried from its HFIP stock solution. The Aβ (1-42) was dissolved in DMSO and then mixed with phosphate buffered saline (PBS) (pH 7.4). The mixed Aβ (1-42) solution was filtered with a Omnipore membrane 0.2-μm syringe filter (Millipore, Bedford, Mass.). The compound to be tested in DMSO (50× concentrate) was put into each well (0.5 μL/well) of a 96-well plate. The Aβ (1-42) solution was added into each well (24.5 μL/well). The plate was centrifuged at 1,000 g for 5 minutes and incubated at 37° C. for 1 day (Aβ1-42; final concentration 100 μM).
After incubation, Thioflavin T (ThT) (30 μM) solution in glycine-NaOH buffer (pH 8.5, 50 mM) was added into each well (250 μL/well), fluorescence was measured (ex=440/20 nm; em=485/20 nm) using a fluorescence plate reader. The inhibitory activity was calculated as the reduction of fluorescence with the following formula: Inhibition (%)={(F(Aβ)−F(Aβ+compound)}/{F(Aβ)−[…]}×100
The IC50s were calculated by a curve fitting program using the following equation. The data were obtained from two different experiments in triplicate. Inhibition (x)=100−100/{1+(x/IC50)^n}. • x=concentration of tested compound (M). • IC50=(M). • n=Hill coefficient.

[4] = molecular target: T4, Soluble Aβ(1-40) peptide (Homo sapiens, UniProt P05067); experiment: BASSR (Beta-Amyloid Self-Seeding Radioassay): inhibitors of self-seeded amyloid fibril growth; conditions: 30 μM soluble Aβ(1-40) + 125I-labeled Aβ(1-40), 37° C., 3 to 5 hours, filtration; replicate values
T4 construct: Soluble Aβ(1-40) peptide; purchased Bachem, Torrance, Calif
T4 sequence (P05067 672-711 limits assumed): as the sequence (P05067 672-711 limits assumed) above
Experimental: BASSR (Beta-Amyloid Self-Seeding Radioassay)
An assay for inhibitors of self-seeded amyloid fibril growth
Assay Buffer—[…] sodium phosphate, pH 7.5, 100 mM NaCl, 0.02% NaN3, 1 M urea (filter and store at 4° C.)
Soluble Aβ(1-40) peptide (Bachem, Torrance, Calif.)—2.2 mg/mL in deionized H2O (stored in aliquots at −20° C., keep on ice when thawed) will self-seed after 1 week storage. Typically, the solution should be stored until no lag phase is seen in the assay.
^125I-labeled Aβ(1-40)—150 to 350K cpm/μL in 100% acetonitrile—0.1% trifluoroacetic acid (TFA)—1% β-mercaptoethanol (aliquots stored at −20° C.). ^125I-labeled Aβ(1-40) can be made in accordance with the procedure set forth by H. Levine, III in Neurobiol. Aging, 16:755 (1995), which is hereby incorporated by reference, or this reagent may be purchased from Amersham, Arlington Heights, Ill. Final assay conditions: 30 μM soluble Aβ(1-40) in deionized water in assay buffer+20 to 50K cpm ^125I-labeled Aβ(1-40) per assay. Compound to be tested is dissolved in dimethylsulfoxide (DMSO), typically 5 to 50 mM stock, such that the final concentration of DMSO is <1% v/v in the assay. Assay: Reaction mixture for 50 assays (on ice) is comprised of 0.1 to 0.2 μL of ^125I-labeled A^125I-labeled Aβ(1-40)+1 μL of soluble Aβ(1-40)+13.5 μL assay buffer per assay. The following are the amounts of the components of the reaction mixture sufficient for 50 assay wells.
• 1) Prepare reaction mixture above by mixing components and storing on ice. • 2) Pipet 14.5 μL of reaction mixture into each of 50 wells on a polypropylene U-bottom 96-well microtiter plate on ice (Costar 3794). • 3) Add 1.7 μL of diluted compound to be tested to each well in a column of eight, including solvent control. Serial 3-fold dilutions from 1 mM (100 μM final) in assay buffer-urea=7 dilutions+zero. Each 96-well plate can therefore accommodate 11 samples+1 Congo Red control (0.039-5 μM final in 2-fold steps). • 4) Seal the plate with aluminum film (Beckman 538619) and incubate for 10 minutes on ice. • 5) Raise the temperature to 37° C. and incubate for 3 to 5 hours (depending on the lot of the peptide). • 6) Remove the aluminum film and add 200 μL/well of ice cold assay buffer with urea, collecting the radiolabeled fibrils by vacuum filtration through 0.2-μm pore size GVWP filters in 96-well plates (Millipore MAGV N22, Bedford, Mass.). Determine the radioactivity of the filters using standard methods well-known to those skilled in the art. BASST (Beta-Amyloid Self-Seeding, Thioflavin T)

IC50 [1] [µM]	IC50 [2] [nM]	IC50 [3]	IC50 [4] [µM]	Structure (SMILES)
5	250			O=C(O)c1cc([N+](=O)[O-])ccc1NC1Cc2ccc(Nc3ccc(Cl)c(Cl)c3)cc2C1 (centres unmarked) [Example 9, 2-[5-(3,4-Dichlorophenylamino)-indan-2-ylamino]-5-nitro-benzoic acid]
28	1100	16 µM		O=C(O)c1cc([N+](=O)[O-])ccc1Nc1ccc2c(c1)CC(NCc1ccc(Cl)c(Cl)c1)C2 (centres unmarked) [Example 4, 2-[2-(3,4-Dichlorobenzylamino)-indan-5-ylamine]-5-nitro-benzoic Acid]
7	1000	7 µM and 12 µM		O=C(O)c1cc([N+](=O)[O-])ccc1Nc1ccc2c(c1)CC(N(Cc1ccc(F)cc1)Cc1ccc(F)cc1)C2 (centres unmarked) [Example 11, 2-{2-[bis-(4-Fluorobenzyl)amino]indan-5-ylamino}-5-nitro-benzoic acid]
	40000	> 100 µM	> 100	O=C(O)c1ccccc1Nc1ccc2c(c1)CC(NCc1ccc(Cl)c(Cl)c1)C2 (centres unmarked) [Example 3, 2-[2-(3,4-Dichlorobenzylamino)-indane-5-ylamino]-benzoic acid]
